Legend:
Proteinase K = biological target: T1, Proteinase K (Parengyodontium album, UniProt P06873); assay: Protease panel: Proteinase K; type: biochemical
T1 construct: Reaction Biology Corporation (contract testing)
Experimental: Protease panel testing was carried out by Reaction Biology Corporation.

ClpP1P2 = ClpP1P2 (Mycolicibacterium smegmatis, UniProt A0R197+A0R198); assay: ClpP1P2 inhibition whole-cell RFP-SsrA reporter assay
Sequence of ClpP1P2 (A0R198 4-203): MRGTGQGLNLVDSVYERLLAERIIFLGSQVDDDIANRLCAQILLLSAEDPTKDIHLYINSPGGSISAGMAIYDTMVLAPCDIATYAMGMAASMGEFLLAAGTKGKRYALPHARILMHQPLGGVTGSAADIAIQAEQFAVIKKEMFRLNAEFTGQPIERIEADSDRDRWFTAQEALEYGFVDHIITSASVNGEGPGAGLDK
Sequence of ClpP1P2 (A0R197 17-218): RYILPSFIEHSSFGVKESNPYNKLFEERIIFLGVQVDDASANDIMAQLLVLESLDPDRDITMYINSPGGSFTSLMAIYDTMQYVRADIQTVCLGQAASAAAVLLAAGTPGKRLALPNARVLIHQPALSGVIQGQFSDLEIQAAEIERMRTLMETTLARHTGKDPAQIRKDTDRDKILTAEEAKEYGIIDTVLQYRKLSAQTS

T1 sequence (P06873 106-384): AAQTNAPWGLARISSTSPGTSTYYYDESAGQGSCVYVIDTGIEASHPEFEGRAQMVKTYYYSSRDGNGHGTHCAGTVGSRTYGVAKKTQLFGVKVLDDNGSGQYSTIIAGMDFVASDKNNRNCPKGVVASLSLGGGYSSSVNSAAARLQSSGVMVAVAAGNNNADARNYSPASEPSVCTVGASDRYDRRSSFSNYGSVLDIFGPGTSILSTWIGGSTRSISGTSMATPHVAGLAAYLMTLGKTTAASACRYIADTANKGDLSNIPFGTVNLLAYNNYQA

## O=C(N[C@@H](Cc1ccccn1)C(=O)N[C@@H](CCc1ccccc1)B(O)O)c1cnccn1 [Compound 58, ((R)-3-phenyl-1-((S)-2-(pyrazine-2-carboxamido)-3-(pyridin-2-yl)propanamido)propyl)boronic acid]
Proteinase K; Table 6, 10-dose response, top 10 μM
  IC50: 0.35 µM
Proteinase K; supplement panel table, test and control compound
  IC50: 0.352 µM
ClpP1P2; M. smegmatis ΔprcAB IC50 (μM) for ClpP1P2, whole-cell RFP-SsrA reporter, 3 h incubation
  IC50: 1.5 ± 0.5 µM
ClpP1P2; M. smegmatis ΔprcAB reporter
  improvement of ClpP1P2 potency compared to compound 1: 4 fold

Source: article PMC5404560, “Towards Selective Mycobacterial ClpP1P2 Inhibitors with Reduced Activity against the Human Proteasome” (Antimicrobial Agents and Chemotherapy, 2017)
